The values below come from patent publication US12227500B2, “Substituted pyrrolo[2,3-b]pyridines for suppressing toxic endoplasmic reticulum stress” (THE TRUSTEES OF COLUMBIA UNIVERSITY IN THE CITY OF NEW YORK, priority 2018, dated 2025).

Like-named read-outs stand apart in the source and are kept apart here.

Assay [1] concerns the target T1, MLK3/MAP3K11 (Homo sapiens, UniProt Q16584).
T1 construct: purchased Reaction Biology Corp
In words: Radiolabeled ATP kinase assay (Reaction Biology Corp.), MLK3. The class given is biochemical. To be noted: [Cmpd] 0.1 μM; 10 μM ATP. The protocol: (§1) Meanwhile, the same analogs were analyzed in a radiolabeled ATP assay (10 μM ATP; Reaction Biology Corp.) to compare the extent to which they could inhibit the activity of HGK, MLK1, or MLK3 in a cell-free environment (Table S3 and S4).

The target of assay [2] is T2, MLK1/MAP3K9 (Homo sapiens, UniProt P80192).
T2 construct: purchased Reaction Biology Corp
In words: Radiolabeled ATP kinase assay (Reaction Biology Corp.), MLK1. In kind it is biochemical. The note with it: [Cmpd] 0.1 μM, 10 μM ATP. The protocol: as §1

The target in assay [3] is HGK/MAP4K4 (Homo sapiens, UniProt O95819). As to the kind of experiment: Radiolabeled ATP kinase assay (Reaction Biology Corp.), HGK. The class given is biochemical. The arrangement: purchased Reaction Biology Corp. To be noted: 10 μM ATP, read-out: % Enzyme Activity (relative to DMSO controls), HGK/MAP4K4, Data 1; for remaining activity at 0.025 µM: [Cmpd] 0.025 μM; for remaining activity at 0.1 µM: [Cmpd] 0.1 μM. The protocol:
as §1

Assay [4] has as its system human ES motor neurons carrying the ALS-causing SOD1^A4V mutation. In words: cells. In kind it is cell-based. To be noted: for EC50 / viability at 1 µM / Emax: Homo sapiens, Neuron, 72 h; for EC50 / Emax: CPA 33 μM; for EC50: read-out: EC50; for viability at 1 µM: CPA (33 μM) + compound (1 μM), read-out: Motor Neuron Survival, % untreated; for Emax: read-out: Emax (MN survival % untreated). The protocol: Next, survival assays were performed with all the analogs at once to generate a low-variability dataset. All compounds were evaluated at concentrations ranging from 0.1-3.0 μM (five-point dilution) in three technical replicates and two biological replicates.

[5] abbreviates: read-out: % Enzyme Activity Remaining (relative to DMSO controls), MLK1/MAP3K9, Data 1.
Where [6] appears, read: read-out: % Enzyme Activity Remaining (relative to DMSO controls), MLK1/MAP3K9, Data 2.

T2 sequence (P80192 whole entry): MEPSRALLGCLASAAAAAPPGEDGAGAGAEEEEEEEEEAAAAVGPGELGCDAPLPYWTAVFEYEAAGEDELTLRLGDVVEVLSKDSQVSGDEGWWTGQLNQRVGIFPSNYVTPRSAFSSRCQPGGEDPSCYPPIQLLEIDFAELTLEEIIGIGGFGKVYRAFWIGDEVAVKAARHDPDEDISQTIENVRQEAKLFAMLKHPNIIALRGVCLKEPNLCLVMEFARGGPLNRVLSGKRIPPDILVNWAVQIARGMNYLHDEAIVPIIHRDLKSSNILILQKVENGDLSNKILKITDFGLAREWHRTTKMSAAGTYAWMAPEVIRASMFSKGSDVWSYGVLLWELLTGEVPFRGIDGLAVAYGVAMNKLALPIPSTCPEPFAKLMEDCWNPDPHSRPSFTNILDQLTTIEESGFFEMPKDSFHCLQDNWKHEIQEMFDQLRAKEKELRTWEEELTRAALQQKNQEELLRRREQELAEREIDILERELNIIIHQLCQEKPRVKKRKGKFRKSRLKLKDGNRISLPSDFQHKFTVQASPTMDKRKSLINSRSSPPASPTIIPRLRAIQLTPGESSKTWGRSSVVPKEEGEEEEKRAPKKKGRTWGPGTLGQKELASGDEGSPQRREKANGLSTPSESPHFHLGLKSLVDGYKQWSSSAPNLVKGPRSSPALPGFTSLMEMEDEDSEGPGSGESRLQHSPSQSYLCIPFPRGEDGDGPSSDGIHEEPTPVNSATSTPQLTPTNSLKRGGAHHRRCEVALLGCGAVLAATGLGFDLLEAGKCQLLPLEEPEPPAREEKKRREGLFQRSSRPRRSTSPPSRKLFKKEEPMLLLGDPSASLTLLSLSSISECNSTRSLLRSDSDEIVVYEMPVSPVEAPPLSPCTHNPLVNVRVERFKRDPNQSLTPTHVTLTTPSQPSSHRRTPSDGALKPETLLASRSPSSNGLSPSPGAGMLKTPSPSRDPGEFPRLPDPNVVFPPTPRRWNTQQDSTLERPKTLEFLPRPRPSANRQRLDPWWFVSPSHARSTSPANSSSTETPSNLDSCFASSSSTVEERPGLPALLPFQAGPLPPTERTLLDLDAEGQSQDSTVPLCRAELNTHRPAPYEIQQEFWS
T1 sequence (Q16584 whole entry): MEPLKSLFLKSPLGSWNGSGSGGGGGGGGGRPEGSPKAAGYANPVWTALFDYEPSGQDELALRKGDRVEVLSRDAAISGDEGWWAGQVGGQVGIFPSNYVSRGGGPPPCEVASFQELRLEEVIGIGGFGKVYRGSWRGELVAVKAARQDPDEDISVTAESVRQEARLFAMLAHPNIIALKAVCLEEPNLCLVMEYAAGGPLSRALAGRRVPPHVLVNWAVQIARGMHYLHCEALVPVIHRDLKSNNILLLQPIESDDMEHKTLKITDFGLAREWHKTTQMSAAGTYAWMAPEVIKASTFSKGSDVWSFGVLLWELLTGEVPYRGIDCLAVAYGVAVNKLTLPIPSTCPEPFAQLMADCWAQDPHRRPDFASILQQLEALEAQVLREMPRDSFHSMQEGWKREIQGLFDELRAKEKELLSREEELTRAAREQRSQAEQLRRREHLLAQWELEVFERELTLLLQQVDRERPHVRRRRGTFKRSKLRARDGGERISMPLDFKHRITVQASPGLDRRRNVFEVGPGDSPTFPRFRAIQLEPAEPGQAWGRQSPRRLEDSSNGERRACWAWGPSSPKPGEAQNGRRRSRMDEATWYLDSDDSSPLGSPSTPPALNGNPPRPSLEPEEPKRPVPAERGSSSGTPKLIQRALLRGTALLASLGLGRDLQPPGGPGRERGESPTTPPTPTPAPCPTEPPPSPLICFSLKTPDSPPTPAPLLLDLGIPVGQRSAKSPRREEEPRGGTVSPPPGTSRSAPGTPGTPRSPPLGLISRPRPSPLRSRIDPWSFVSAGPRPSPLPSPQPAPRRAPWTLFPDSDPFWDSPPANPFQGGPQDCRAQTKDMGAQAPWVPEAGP
HGK/MAP4K4, sequence (O95819 whole entry): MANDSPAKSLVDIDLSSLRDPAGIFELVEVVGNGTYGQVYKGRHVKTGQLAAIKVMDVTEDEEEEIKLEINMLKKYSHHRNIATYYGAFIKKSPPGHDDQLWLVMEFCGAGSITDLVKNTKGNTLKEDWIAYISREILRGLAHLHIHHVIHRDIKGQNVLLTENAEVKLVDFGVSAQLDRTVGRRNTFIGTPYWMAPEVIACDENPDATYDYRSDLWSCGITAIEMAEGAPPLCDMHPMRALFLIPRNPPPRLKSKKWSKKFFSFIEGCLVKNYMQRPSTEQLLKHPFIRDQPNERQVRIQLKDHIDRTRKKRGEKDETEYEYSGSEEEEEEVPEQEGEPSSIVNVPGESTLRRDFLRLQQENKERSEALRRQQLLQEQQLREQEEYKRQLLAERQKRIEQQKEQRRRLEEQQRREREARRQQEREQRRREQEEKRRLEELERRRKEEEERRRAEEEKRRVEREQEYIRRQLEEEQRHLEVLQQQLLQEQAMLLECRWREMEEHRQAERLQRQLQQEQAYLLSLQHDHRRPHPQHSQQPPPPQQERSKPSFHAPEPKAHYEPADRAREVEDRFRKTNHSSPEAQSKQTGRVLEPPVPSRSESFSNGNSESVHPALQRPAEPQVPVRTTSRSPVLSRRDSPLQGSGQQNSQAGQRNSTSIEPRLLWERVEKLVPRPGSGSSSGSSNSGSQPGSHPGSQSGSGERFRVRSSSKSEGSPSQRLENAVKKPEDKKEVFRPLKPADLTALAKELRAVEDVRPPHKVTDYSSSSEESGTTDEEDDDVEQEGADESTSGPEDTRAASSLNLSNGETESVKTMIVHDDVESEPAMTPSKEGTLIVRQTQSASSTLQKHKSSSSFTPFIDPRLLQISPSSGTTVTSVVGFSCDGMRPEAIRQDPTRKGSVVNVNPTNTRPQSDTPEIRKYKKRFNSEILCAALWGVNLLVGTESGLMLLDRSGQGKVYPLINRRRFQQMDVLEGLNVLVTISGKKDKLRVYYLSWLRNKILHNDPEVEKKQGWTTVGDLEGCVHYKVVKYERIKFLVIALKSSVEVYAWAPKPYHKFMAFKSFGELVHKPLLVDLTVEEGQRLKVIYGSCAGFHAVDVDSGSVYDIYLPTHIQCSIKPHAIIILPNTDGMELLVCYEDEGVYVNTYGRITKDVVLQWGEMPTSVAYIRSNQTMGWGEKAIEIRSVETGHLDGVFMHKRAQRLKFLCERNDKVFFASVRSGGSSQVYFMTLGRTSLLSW

As for `CN1CCN(Cc2ccc(-c3cnc4[nH]cc(-c5cc6ccccc6[nH]5)c4c3)cc2)CC1` [Compound 7a, 3-(1H-Indol-2-yl)-5-(4-((4-methylpiperazin-1-yl)methyl)phenyl)-1H-pyrrolo[2,3-b]pyridine], in assay [1], the “% Enzyme Activity Remaining (relative to DMSO controls), MLK3/MAP3K11, Data 1” value was found to be 63.66% and the “% Enzyme Activity Remaining (relative to DMSO controls), MLK3/MAP3K11, Data 2” value was 64.82%. In addition, the remaining activity at 0.1 µM in assay [2] (setting [5]) worked out at 74.2%. In addition, the remaining activity at 0.1 µM in assay [2] (setting [6]) was 75.1%. For the same molecule, in assay [3], the remaining activity at 0.025 µM amounted to 86.1% and the remaining activity at 0.1 µM came to 58.8%.
`CN1CCN(Cc2ccc(-c3cnc4[nH]cc(-c5cc(C(F)(F)F)cc(C(F)(F)F)c5)c4c3)cc2)CC1` [Compound 7aj, 3-(3,5-Bis(trifluoromethyl)phenyl)-5-(4-((4-methylpiperazin-1-yl)methyl)phenyl)-1H-pyrrolo[2,3-b]pyridine]: in assay [1], the “% Enzyme Activity Remaining (relative to DMSO controls), MLK3/MAP3K11, Data 1” value came to 95.75% and the “% Enzyme Activity Remaining (relative to DMSO controls), MLK3/MAP3K11, Data 2” value is recorded as 93.75%. Also, the remaining activity at 0.1 µM in assay [2] (setting [5]) was 96.4%. The remaining activity at 0.1 µM in assay [2] (setting [6]) stood at 92.6%. For the same molecule, in assay [3], the remaining activity at 0.025 µM came out at 103% and the remaining activity at 0.1 µM was found to be 86.6%.
`COc1cc(-c2c[nH]c3ncc(-c4ccc(CN5CCN(C)CC5)cc4)cc23)cc(OC)c1OC` [Compound 7ap, 5-(4-((4-Methylpiperazin-1-yl)methyl)phenyl)-3-(3,4,5-trimethoxyphenyl)-1H-pyrrolo[2,3-b]pyridine]: in assay [1], the “% Enzyme Activity Remaining (relative to DMSO controls), MLK3/MAP3K11, Data 1” value was 70.05% and the “% Enzyme Activity Remaining (relative to DMSO controls), MLK3/MAP3K11, Data 2” value turned out to be 68.91%. Further, the remaining activity at 0.1 µM in assay [2] (setting [5]) stood at 54.2%. Moreover, the remaining activity at 0.1 µM in assay [2] (setting [6]) amounted to 52.8%. In addition, in assay [3], the remaining activity at 0.025 µM is 35.6% and the remaining activity at 0.1 µM was 6.76%.
Take `COc1ccc(-c2c[nH]c3ncc(-c4ccc(CN5CCN(C)CC5)cc4)cc23)cc1C` [Compound 7aq, 3-(4-Methoxy-3-methylphenyl)-5-(4-((4-methylpiperazin-1-yl)methyl)phenyl)-1H-pyrrolo[2,3-b]pyridine]: in assay [1], the “% Enzyme Activity Remaining (relative to DMSO controls), MLK3/MAP3K11, Data 1” value worked out at 51.92% and the “% Enzyme Activity Remaining (relative to DMSO controls), MLK3/MAP3K11, Data 2” value was found to be 49.61%. For the same molecule, the remaining activity at 0.1 µM in assay [2] (setting [5]) worked out at 54.5%. In addition, the remaining activity at 0.1 µM in assay [2] (setting [6]) amounted to 53.6%. Also, in assay [3], the remaining activity at 0.025 µM came out at 57.3% and the remaining activity at 0.1 µM worked out at 20%.
Turning to `CN1CCN(Cc2ccc(-c3cnc4[nH]cc(-c5cc6ccccc6s5)c4c3)cc2)CC1` [Compound 7g, 3-(Benzo[b]thiophen-2-yl)-5-(4-((4-methylpiperazin-1-yl)methyl)phenyl)-1H-pyrrolo[2,3-b]pyridine], in assay [1], the “% Enzyme Activity Remaining (relative to DMSO controls), MLK3/MAP3K11, Data 1” value was 45.87% and the “% Enzyme Activity Remaining (relative to DMSO controls), MLK3/MAP3K11, Data 2” value is 42.66%. In addition, the remaining activity at 0.1 µM in assay [2] (setting [5]) was found to be 55.9%. In addition, in assay [2] (setting [6]), the remaining activity at 0.1 µM came out at 58.5%.
Turning to `CN1CCN(Cc2ccc(-c3cnc4[nH]cc(-c5cccc(C(=O)O)c5)c4c3)cc2)CC1` [Compound 7j, 3-(5-(4-((4-Methylpiperazin-1-yl)methyl)phenyl)-1H-pyrrolo[2,3-b]pyridin-3-yl)benzoic acid], the “% Enzyme Activity Remaining (relative to DMSO controls), MLK3/MAP3K11, Data 1” value in assay [1] was determined as 46.91%. The “% Enzyme Activity Remaining (relative to DMSO controls), MLK3/MAP3K11, Data 2” value in assay [1] is reported as 44.55%. For the same molecule, the results for the remaining activity at 0.1 µM in assay [2] (setting [5]), in assay [2] (setting [6]) and in assay [3] were 77.7%, 77.5% and 20.6%, respectively. Further, in assay [3], the remaining activity at 0.025 µM was 63.6%.
Regarding `CC(C)Oc1ccc(-c2c[nH]c3ncc(-c4ccc(CN5CCN(C)CC5)cc4)cc23)cc1` [Compound 7q, 3-(4-Isopropoxyphenyl)-5-(4-((4-methylpiperazin-1-yl)methyl)phenyl)-1H-pyrrolo[2,3-b]pyridine], in assay [1], the “% Enzyme Activity Remaining (relative to DMSO controls), MLK3/MAP3K11, Data 1” value was 91.91% and the “% Enzyme Activity Remaining (relative to DMSO controls), MLK3/MAP3K11, Data 2” value is 89.69%. In assay [4], the concentration giving a half-maximal response (EC50) was 740 nM, the viability at 1 µM worked out at 20.6% and the Emax stood at 21.5%. The remaining activity at 0.1 µM in assay [2] (setting [5]) amounted to 94.1%. In addition, the remaining activity at 0.1 µM in assay [2] (setting [6]) came out at 95.4%.
For the molecule `CN1CCN(Cc2ccc(-c3cnc4[nH]cc(-c5cccc(O)c5)c4c3)cc2)CC1` [Compound 7r, 3-(5-(4-((4-Methylpiperazin-1-yl)methyl)phenyl)-1H-pyrrolo[2,3-b]pyridin-3-yl)phenol], in assay [1], the “% Enzyme Activity Remaining (relative to DMSO controls), MLK3/MAP3K11, Data 1” value amounted to 38.87% and the “% Enzyme Activity Remaining (relative to DMSO controls), MLK3/MAP3K11, Data 2” value is reported as 39.87%. Besides, the remaining activity at 0.1 µM in assay [2] (setting [5]) was determined as 56.2%. Also, the remaining activity at 0.1 µM in assay [2] (setting [6]) was 58.6%. In assay [3], the remaining activity at 0.025 µM was 4.88% and the remaining activity at 0.1 µM turned out to be 1.23%.
Regarding `CN1C2CCC1CN(Cc1ccc(-c3cnc4[nH]cc(-c5ccc6[nH]ccc6c5)c4c3)cc1)C2` [Compound 12b, 3-(1H-Indol-5-yl)-5-(4-((8-methyl-3,8-diazabicyclo[3.2.1]octan-3-yl)methyl)phenyl)-1H-pyrrolo[2,3-b]pyridine], in assay [4], the concentration giving a half-maximal response (EC50) stood at 1960 nM, the viability at 1 µM stood at 25.2% and the Emax turned out to be 72.6%. Further, in assay [3], the remaining activity at 0.025 µM came out at 69% and the remaining activity at 0.1 µM is 34.5%.
For the molecule `CN1CC2CCC(C1)N2Cc1ccc(-c2cnc3[nH]cc(-c4ccc5[nH]ccc5c4)c3c2)cc1` [Compound 12c, 3-(1H-Indol-5-yl)-5-(4-((3-methyl-3,8-diazabicyclo[3.2.1]octan-8-yl)methyl)phenyl)-1H-pyrrolo[2,3-b]pyridine], in assay [4], the EC50 was found to be 694 nM, the viability at 1 µM amounted to 43.7% and the Emax amounted to 43.7%. Moreover, in assay [3], the remaining activity at 0.025 µM amounted to 92.7% and the remaining activity at 0.1 µM was 84.2%.
In the case of `CN1C2CCC1CN(Cc1ccc(-c3cnc4[nH]cc(-c5cccc6[nH]ncc56)c4c3)cc1)C2` [Compound 12d, 4-(5-(4-((8-Methyl-3,8-diazabicyclo[3.2.1]octan-3-yl)methyl)phenyl)-1H-pyrrolo[2,3-b]pyridin-3-yl)-1H-indazole], in assay [4], the EC50 was 301 nM, the viability at 1 µM was found to be 109% and the Emax was determined as 143%. Further, in assay [3], the remaining activity at 0.025 µM is 3.17% and the remaining activity at 0.1 µM was -0.29%.
`Fc1cccc(-c2c[nH]c3ncc(-c4ccc(CN5CCC(N6CCCCC6)CC5)cc4)cc23)c1` [Compound 12g, 5-(4-([1,4′-Bipiperidin]-1′-ylmethyl)phenyl)-3-(3-fluorophenyl)-1H-pyrrolo[2,3-b]pyridine]: in assay [4], the EC50 is 50 nM and the Emax is 89.3%.
In the same order, the values of `CC(C)(C)N1CCN(Cc2ccc(-c3cnc4[nH]cc(-c5cccc(F)c5)c4c3)cc2)CC1` [Compound 12j, 5-(4-((4-(tert-Butyl)piperazin-1-yl)methyl)phenyl)-3-(3-fluorophenyl)-1H-pyrrolo[2,3-b]pyridine] are 50 nM and 98.5%.
As to NG-25 [reference compound], the “rescue of MNs in the CPA survival assay” value in assay [4] (FIG. 9) is reported as “unable to rescue MNs”.

One may read the EC50 as the midpoint of the concentration-response curve.
